Literature values in US20070081962A1, “Novel delivery of immune response modifiers for removal of chronic tattoos” (priority 2005, published 2007).

Tested on: freshly applied tattoos
Settings: guinea pigs tattooed with commonly used tattoo inks; topical 5% cream, initiated within six hours of the tattoo application and continued for seven days

## CC(C)Cn1cnc2c(N)nc3ccccc3c21 [irmiquimod, 1-(2-methylpropyl)-1H-imidazo[4,5-c]quinolin-4-amine]
  removal of freshly applied tattoos: effective for removing freshly applied tattoos
